{"source": "patent EP4792811A1", "about": "“S1PR4 REGULATOR COMPOUND FOR MUSCLE DISEASE TREATMENT AND APPLICATION THEREOF” (Shengyuan Zetong (Shanghai) Pharmaceutical Co., Ltd, priority 2023, dated 2025)", "key": {"[1]": {"molecular_target": "T1, S1PR5 (Homo sapiens, UniProt Q9H228)", "T1 construct": "expressed in transfected cells; host or cells: CHO", "assay": "FLIPR assay, S1PR5-CHO cell line", "type": "cell-based", "method": "(§1) ^a β-arrestin recruitment activity based on Tango-S1PR1-CHO-K1 and Tango-S1PR4-CHO-K1 cells, expressed as mean EC50 values ± SD. ^b FLIPR assays were performed using S1PR2-CHO and S1PR5-CHO cell lines, expressed as mean EC50 values ± SD. ^c β-arrestin recruitment activity based on PathHunter CHO-K1-S1PR3 cells, expressed as mean EC50 values ± SD. Data are the mean of at least two independent determinations, reported as mean ± SD (standard deviation)."}, "[2]": {"molecular_target": "T2, S1PR3 (Homo sapiens, UniProt Q99500)", "T2 construct": "expressed in transfected cells; host or cells: PathHunter CHO-K1", "assay": "β-arrestin recruitment, PathHunter CHO-K1-S1PR3 cells", "type": "cell-based", "method": "as §1"}, "[3]": {"tested_on": "S1PR4-R82C/NDUFA10-R217W double-mutant mice", "assay": "In vivo efficacy in S1PR4-R82C/NDUFA10-R217W double-mutant muscular dystrophy mice", "settings": "for grip strength (ratio of grip strength to body weight): after 21 days of treatment; for body weight gain trend: compared with the model group; for collagen deposition (collagen area ratio): after administration", "method": "Experimental Animals: A total of 34 S1PR4-R82C/NDUFA10-R217W mice were divided into 6 groups as shown below.\nIntragastric administration was initiated on Day 0, and body weight was measured daily during the experiment to adjust the drug dosage. Grip strength was measured at the beginning and end of the experiment to observe motor changes in mice. Changes in the limb grip strength, serum creatine kinase content, and muscle fibrosis/inflammation in mice were detected as indicators for evaluating drug efficacy.\n(§2) The mouse was placed horizontally on the grip test board. The mouse's tail was held and pulled gently in the opposite direction without using excessive force. The tail was gradually pulled until the mouse released the grip force sensor. The maximum value recorded by the grip force sensor is the grip strength. The test was repeated for 3 times and the average value was taken.\n(§3) After the completion of administration, blood was collected via the orbital sinus, allowed to stand for 30 minutes, centrifuged at 3000 rpm at 4°C for 15 minutes, and serum was extracted, stored frozen at -20°C, and detected in accordance with the kit instructions.\n(§4) After the experiment, the tibialis anterior, extensor digitorum longus, and diaphragm of the mice were harvested, fixed, sectioned, and subjected to HE staining and Sirius Red staining to observe the degree of muscle fibrosis. The slice was subjected to immunofluorescence staining with F4/80 to observe the level of muscle inflammation."}, "[4]": {"tested_on": "Duchenne muscular dystrophy model mice", "assay": "In vivo pharmacodynamic test in Duchenne muscular dystrophy model mice (Compound 30)", "settings": "for serum creatine kinase level: after treatment", "method": "Experimental Animals: A total of 35 Duchenne muscular dystrophy model mice were divided into 6 groups as shown below.\nIntragastric administration was initiated from Day 0. Body weight was measured daily during the experiment to adjust the drug dosage. Grip strength tests were performed every 2 days to observe changes in the mice's grip strength until the experiment concluded on Day 21. Changes in the limb grip strength, serum creatine kinase content, and muscle fibrosis/inflammation in the mice were detected as indicators for evaluating drug efficacy.\nas §2, §3, §4"}, "[5]": {"molecular_target": "T3, hS1P4 (Homo sapiens, UniProt O95977)", "T3 construct": "expressed in transfected cells; host or cells: CHO-K1", "T3 sequence (O95977 1-384)": "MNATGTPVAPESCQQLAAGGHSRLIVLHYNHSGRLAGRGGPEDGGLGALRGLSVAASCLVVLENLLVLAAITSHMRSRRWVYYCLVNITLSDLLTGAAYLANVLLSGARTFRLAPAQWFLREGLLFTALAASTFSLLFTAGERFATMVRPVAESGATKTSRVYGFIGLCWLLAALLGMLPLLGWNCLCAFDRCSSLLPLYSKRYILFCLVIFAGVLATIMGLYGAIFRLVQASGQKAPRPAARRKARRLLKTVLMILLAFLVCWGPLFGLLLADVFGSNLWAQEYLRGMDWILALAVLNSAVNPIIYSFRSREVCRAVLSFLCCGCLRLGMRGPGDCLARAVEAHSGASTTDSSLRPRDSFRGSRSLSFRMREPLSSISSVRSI", "assay": "Tango β-arrestin recruitment assay, Tango-hS1P4-CHO", "type": "cell-based", "settings": "selectivity table; Tango-S1PR4-CHO-K1 cells", "description": "The Tango assay detects ligand-dependent GPCR activity through the interaction between β-arrestin and GPCRs. […] The NTEV fragment and the tetracycline transactivator (tTA), an artificial transcription factor, are fused at the C-terminus of the GPCR, while the CTEV fragment is fused to human β-arrestin 2. To enhance the stability of the interaction between GPCR and β-arrestin, a short sequence from the C-terminus of the human arginine vasopressin receptor 2 (V2 tail) is inserted between the GPCR and NTEV. The V2 tail contains multiple GRK phosphorylation sites, which strengthen β-arrestin binding upon phosphorylation. The CTEV fragment carries the stabile point mutation S219P and is truncated at residue 221 to remove the autoinhibitory C-terminal tail. Meanwhile, β-arrestin 2 is truncated to lack the entire C-terminal tail (residues 383-410 deleted). This truncation confers robust stimulus-dependent receptor desensitization, thereby improving detection sensitivity compared with wild-type β-arrestin 2. The UAS reporter construct consists of upstream activating sequence (UAS) elements, a minimal CMV promoter, and a tTA-dependent luciferase reporter gene. Therefore, constructing Tango cells requires the co-transfection of the above three plasmids into host cells. Upon GPCR activation and β-arrestin recruitment, the TEV enzyme at the β-arrestin terminus cleaves tTA from the GPCR C-terminus. The released tTA initiates tTA-dependent luciferase transcription, and compound activity is ultimately determined by measuring luminescence intensity.\n• 1) Tango cell line from was digested from the culture dish respectively. After cell counting, the cells were plated at a density of 10,000 cells per well with […] into a white opaque 96-well plate (add 60 µL D'Hanks to the surrounding wells), and incubated overnight (20 h) in a 5% CO2 incubator at 37°C. The cell density will reach approximately 90% the next day. • 2) After 20 h, 30 µL of serially diluted compound solution was added to each well. The control group was supplemented with 30 µL F12K complete medium. Each group had three replicate wells. • 3) Samples were collected after 20 h of drug treatment.\n(All compounds were tested at a final concentration of 45 µM, with 9 serial dilutions at 5-fold intervals. 1 µM BAF-312 was used as the positive control for S1PR1, and 25 µM BAF-312 was used as the positive control for S1PR4.)\nas §1"}, "[6]": {"molecular_target": "T4, S1PR2 (Homo sapiens, UniProt O95136)", "T4 construct": "expressed in transfected cells; host or cells: CHO", "T4 sequence (O95136 whole entry, species assumed)": "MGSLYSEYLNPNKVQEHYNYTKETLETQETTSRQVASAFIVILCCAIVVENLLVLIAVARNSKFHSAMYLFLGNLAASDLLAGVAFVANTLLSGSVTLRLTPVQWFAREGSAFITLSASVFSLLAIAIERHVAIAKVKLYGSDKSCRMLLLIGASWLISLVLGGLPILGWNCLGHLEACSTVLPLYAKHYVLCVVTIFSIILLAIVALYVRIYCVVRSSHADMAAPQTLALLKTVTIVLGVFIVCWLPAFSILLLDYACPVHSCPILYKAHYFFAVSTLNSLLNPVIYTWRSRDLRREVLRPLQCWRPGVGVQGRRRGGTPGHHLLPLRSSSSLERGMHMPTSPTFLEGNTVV", "assay": "FLIPR assay, S1PR2-CHO cell line", "type": "cell-based", "method": "as §1"}, "[7]": {"settings": "compared with the endogenous ligand S1P"}, "[8]": {"settings": "0.3 mg/kg intragastric once daily"}, "[9]": {"settings": "1 mg/kg intragastric once daily"}, "[10]": {"settings": "1 mg/kg intragastric once daily, after treatment"}, "[11]": {"settings": "3 mg/kg intragastric once daily"}, "[12]": {"settings": "0.3 mg/kg intragastric once daily, compared with the model group"}}, "data": [{"smiles": "CCc1cc(/C(C)=N/OCc2ccc(-c3ccccc3)c(C)c2)ccc1CN1CC[C@H](C(=O)O)C1", "note": "[Compound 30]", "values": [{"measurement": "agonist activity on S1PR5", "setting": "[1]; [7]", "value": "no agonist activity"}, {"measurement": "Emax", "setting": "[1]; selectivity table, FLIPR, S1PR5-CHO", "value": 19.5, "unit": "%"}, {"measurement": "agonist activity on S1PR3", "setting": "[2]; [7]", "value": "no agonist activity"}, {"measurement": "Emax", "setting": "[2]; selectivity table, PathHunter CHO-K1-S1PR3", "value": 2.25, "unit": "%"}, {"measurement": "grip strength (ratio of grip strength to body weight)", "setting": "[3]; [8]", "value": "significantly increased"}, {"measurement": "body weight gain trend", "setting": "[3]; [8]", "value": "no difference"}, {"measurement": "grip strength (ratio of grip strength to body weight)", "setting": "[3]; [9]", "value": "significantly increased"}, {"measurement": "collagen deposition (collagen area ratio)", "setting": "[3]; [9]", "value": "significantly reduced collagen deposition"}, {"measurement": "macrophage content (F4/80 immunofluorescence, muscle inflammation)", "setting": "[3]; [10]", "value": "greatest reduction"}, {"measurement": "number of centrally nucleated fibers (HE staining)", "setting": "[3]; [10]", "value": "greatest reduction"}, {"measurement": "serum creatine kinase level", "setting": "[3]; [10]", "value": "significantly reduced"}, {"measurement": "body weight gain trend", "setting": "[3]; [9]", "value": "no difference"}, {"measurement": "collagen deposition (collagen area ratio)", "setting": "[3]; [11]", "value": "significantly reduced collagen deposition"}, {"measurement": "body weight gain trend", "setting": "[3]; [11]", "value": "no difference"}, {"measurement": "serum creatine kinase level", "setting": "[3]; 4 mg/kg (so in the source) intragastric once daily, after treatment", "value": "significantly reduced"}, {"measurement": "collagen deposition (collagen area ratio)", "setting": "[4]; [8]", "value": "significantly reduced collagen deposition"}, {"measurement": "serum creatine kinase level", "setting": "[4]; [8]", "value": "significantly reduced"}, {"measurement": "body weight growth trend", "setting": "[4]; [12]", "value": "no difference"}, {"measurement": "number of centrally nucleated fibers (HE staining)", "setting": "[4]; [12]", "value": "no significant difference"}, {"measurement": "collagen deposition (collagen area ratio)", "setting": "[4]; [9]", "value": "significantly reduced collagen deposition"}, {"measurement": "macrophage content (F4/80 immunofluorescence, muscle inflammation)", "setting": "[4]; [9]", "value": "significantly reduced macrophage content"}, {"measurement": "number of centrally nucleated fibers (HE staining)", "setting": "[4]; [9]", "value": "significantly reduced"}, {"measurement": "serum creatine kinase level", "setting": "[4]; [9]", "value": "significantly reduced"}, {"measurement": "body weight growth trend", "setting": "[4]; 1 mg/kg intragastric once daily, compared with the model group", "value": "no difference"}, {"measurement": "collagen deposition (collagen area ratio)", "setting": "[4]; [11]", "value": "significantly reduced collagen deposition"}, {"measurement": "macrophage content (F4/80 immunofluorescence, muscle inflammation)", "setting": "[4]; [11]", "value": "significantly reduced macrophage content"}, {"measurement": "number of centrally nucleated fibers (HE staining)", "setting": "[4]; [11]", "value": "significantly reduced"}, {"measurement": "serum creatine kinase level", "setting": "[4]; [11]", "value": "significantly reduced"}, {"measurement": "body weight growth trend", "setting": "[4]; 3 mg/kg intragastric once daily, compared with the other groups", "value": "relatively slow"}, {"measurement": "increase in grip strength (ratio of grip strength to body weight)", "setting": "[4]; 3 mg/kg intragastric once daily, first 14 days", "value": "most significant"}, {"measurement": "Emax", "setting": "[5]", "value": 104, "unit": "%"}, {"measurement": "agonist activity on S1PR2", "setting": "[6]; [7]", "value": "no agonist activity"}, {"measurement": "Emax", "setting": "[6]; selectivity table, FLIPR, S1PR2-CHO", "value": -6.9, "unit": "%"}]}]}
